According to patent US20250101052A1, “COMPOUND FOR EGFR KINASE INHIBITOR, COMPOSITION, AND USE THEREOF” (INNOVATION INSTITUTE FOR ARTIFICIAL INTELLIGENCE IN …, priority 2021, published 2025):

Experiments:
[1] = Stability testing of liver microsomes, human; format: in vitro ADME; details: for CLint scaled at 1 µM / half-life at 1 µM: pH 7.41, human liver microsomes
Experimental: (§1) 1. 100 mM K-buffer was preheated with 5 mM MgCl2 with a pH value of 7.41.
(§2) 2. Preparation of testing solution
(§3) 0.5 mM solution A: 5 μL of the 10 mM compound stock solution was added for reference to 95 μL of ACN.
(§4) 1.5 μM microsome solution (0.75 mg/mL): 1.5 μL of a 500 μM solution and 18.75 μL of 20 mg/mL liver microsomes were added to 479.75 μL of K/Mg-buffer.
(§5) 3. The K/Mg-buffer NADPH solution (6 mM, 5 mg/mL) was prepared.
(§6) 4. […] of human, monkey, and mouse liver microsomes with a 0.75 mg/mL concentration were added to detection plates at different time points (0, 15, 30, 45, and 60 minutes).
(§7) 5. Pre-incubation was conducted at 37° C. for 5 minutes.
(§8) 6. At 0 min, before 15 μL of the NADPH stock solution (6 mM) was added, 150 μL of ACN containing IS was added.
(§9) NADPH was dissolved in the K/mg buffer to prepare a 6 mm and 5 mg/mL NADPH stock solution.
(§10) 7. At other time points, 15 μL of the NADPH stock solution (6 mM) was added to the well for starting the reaction and timing.
(§11) 8. 150 μL of ACN containing IS was added to the corresponding plate wells at 15 min, 30 min, 45 min, and 60 min, respectively, and the reaction was stopped.
(§12) 9. After quenching, shaking well was conducted for 10 minutes (600 rpm), and centrifugation was conducted at 6000 rpm for 15 minutes.
(§13) 10. 80 μL of the supernatant in each well was transferred to a 96-well sample plate (containing 140 μL of pure water) for LC/MS analysis.

[2] = Stability testing of liver microsomes, monkey; format: in vitro ADME; details: for CLint scaled at 1 µM / half-life at 1 µM: pH 7.41, monkey liver microsomes
Experimental: as §1, §2, §3, §4, §5, §6, §7, §8, §9, §10, §11, §12, §13

[3] = Stability testing of liver microsomes, mouse; format: in vitro ADME; details: for CLint scaled at 1 µM / half-life at 1 µM: pH 7.41, mouse liver microsomes
Experimental: as §1, §2, §3, §4, §5, §6, §7, §8, §9, §10, §11, §12, §13

[4] = tested on: Ba/F3-EGFR^L858R/T790M/C797S nude mouse transplantation tumors; test: In-vivo efficacy in Ba/F3-EGFR^L858R/T790M/C797S xenograft (CDX); design: species or system BALB/c nude mice; details: 13 days
Experimental: In-vivo efficacy: The compounds of the present invention have excellent in-vivo anti-tumor efficacy and are dose-dependent
In-vivo efficacy experiments were conducted on BALB/c nude mice subcutaneously implanted with Ba/F3-EGFR^L858R/T790M/C797S derived xenograft (CDX). BALB/c nude mice, female, 6-8 weeks old, weighing approximately 18-22 grams, were raised in an SPF-level environment with separate ventilation for each cage (5 mice per cage). All cages, beddings, and water were disinfected before use. All the animals were free to access standard certified commercial laboratory diets. A total of 48 mice were purchased from Beijing Vital River for research. Each mouse was subcutaneously implanted with […] in the right axilla for tumor growth. The experiment began when the average tumor volume reached about 70 cubic millimeters. The experimental compounds were for oral administration daily, with compound 24 (45 mg/kg, 75 mg/kg respectively) and compound 51 (100 mg/kg) administered continuously for 13 days.

[5] = tested on: BaF3-EGFR^L858R/C797S cells; test: BaF3 cell proliferation inhibition experiment (CCK-8); format: cell-based; details: Ba/F3 EGFR-L858R, 72 h, read-out: BaF3-EGFR^L858R/C797S (IC50 nM)
[6] = tested on: BaF3-EGFR^del19/C797S cells; test: as above; format: cell-based; details: Mus musculus, BaF3, 72 h, read-out: BaF3-EGFR^del19 /C797S (IC50 nM)

Structure (SMILES)	CLint scaled at 1 µM [1] [mL/min/kg]	half-life at 1 µM [1] [min]	CLint scaled at 1 µM [2] [mL/min/kg]	half-life at 1 µM [2] [min]	CLint scaled at 1 µM [3] [mL/min/kg]	half-life at 1 µM [3] [min]	TGI % ([4]; 45 mg/kg/day oral) [%]	TGI % ([4]; 75 mg/kg/day oral) [%]	stability in liver microsomes (in words) ([1]; humans)	IC50 [5] [nM]	IC50 [6] [nM]	stability in liver microsomes (in words) ([2]; monkeys)	stability in liver microsomes (in words) ([3]; mice)	TGI % ([4]; 100 mg/kg/day oral) [%]
CCc1cc(Nc2ncc(Cl)c(Nc3ccc(C)c(C)c3P(C)(C)=O)n2)c(OC)cc1N1CCC(N2CCN(C)CC2)CC1 [Comparative Compound A, reference compound]	49.8	27.8	52	26.7	18.2	76.1								
CCc1cc(Nc2ncc(Cl)c(Nc3ccc(C)c(C)c3P(C)(C)=O)n2)c(OC)cc1N1CC2(CCN(C)CC2)C1 [Compound 24, (6-((5-Chloro-2-((5-ethyl-2-methoxy-4-(7-methyl-2,7-diazaspiro[3.5]non-2-yl)phenyl)amino)pyrimidin-4-yl)amino)-2,3-dimethylphenyl)dimethylphosphine oxide]	< 9.6	> 145	27.7	50	< 9.6	> 145	84.74	99.06	good stability	158	202	good stability	good stability	
CCc1cc(Nc2ncc(Cl)c(Nc3ccc(C)c(C)c3P(C)(C)=O)n2)c(OC)cc1N1CCC(N2C[C@H]3CC[C@@H](C2)N3C)CC1 [Compound 51, (6-((5-chloro-2-((5-ethyl-2-methoxy-4-(4-((1R,5S)-8-methyl-3,8-diazabicyclo[3.2.1]octan-3-yl)piperidin-1-yl)phenyl)amino)pyrimidin-4-yl)amino)-2,3-dimethylphenyl)dimethylphosphine oxide]										116	146			83.07
